In patent publication US10710978B2, “STK4 inhibitors for treatment of hematologic malignancies” (Dana-Farber Cancer Institute, Inc., priority 2015, dated 2020):
Like-named read-outs stand apart in the source and are kept apart here.

Assays:
Assay in all cases: KiNativ assay
Type in all cases: binding
NEK3 = NEK3 (Homo sapiens (Human), UniProt P51956); settings: H929 live cell
Protocol: (§1) Biochemical IC50s of the compounds of the present disclosure against various kinases were measured in a KiNativ assay. Compounds were screened in duplicate at 10 μM in H929 live cell. IC50 was measured via Mass spectroscopy (MS).

IRAK1 = IRAK1 (Homo sapiens (Human), UniProt P51617); settings: H929 live cell
Protocol: as §1

JAK3 domain2 = JAK3 domain2 (Homo sapiens (Human), UniProt P52333); settings: H929 live cell
Sequence of JAK3 domain2 (P52333 whole entry, the tested form may be a part): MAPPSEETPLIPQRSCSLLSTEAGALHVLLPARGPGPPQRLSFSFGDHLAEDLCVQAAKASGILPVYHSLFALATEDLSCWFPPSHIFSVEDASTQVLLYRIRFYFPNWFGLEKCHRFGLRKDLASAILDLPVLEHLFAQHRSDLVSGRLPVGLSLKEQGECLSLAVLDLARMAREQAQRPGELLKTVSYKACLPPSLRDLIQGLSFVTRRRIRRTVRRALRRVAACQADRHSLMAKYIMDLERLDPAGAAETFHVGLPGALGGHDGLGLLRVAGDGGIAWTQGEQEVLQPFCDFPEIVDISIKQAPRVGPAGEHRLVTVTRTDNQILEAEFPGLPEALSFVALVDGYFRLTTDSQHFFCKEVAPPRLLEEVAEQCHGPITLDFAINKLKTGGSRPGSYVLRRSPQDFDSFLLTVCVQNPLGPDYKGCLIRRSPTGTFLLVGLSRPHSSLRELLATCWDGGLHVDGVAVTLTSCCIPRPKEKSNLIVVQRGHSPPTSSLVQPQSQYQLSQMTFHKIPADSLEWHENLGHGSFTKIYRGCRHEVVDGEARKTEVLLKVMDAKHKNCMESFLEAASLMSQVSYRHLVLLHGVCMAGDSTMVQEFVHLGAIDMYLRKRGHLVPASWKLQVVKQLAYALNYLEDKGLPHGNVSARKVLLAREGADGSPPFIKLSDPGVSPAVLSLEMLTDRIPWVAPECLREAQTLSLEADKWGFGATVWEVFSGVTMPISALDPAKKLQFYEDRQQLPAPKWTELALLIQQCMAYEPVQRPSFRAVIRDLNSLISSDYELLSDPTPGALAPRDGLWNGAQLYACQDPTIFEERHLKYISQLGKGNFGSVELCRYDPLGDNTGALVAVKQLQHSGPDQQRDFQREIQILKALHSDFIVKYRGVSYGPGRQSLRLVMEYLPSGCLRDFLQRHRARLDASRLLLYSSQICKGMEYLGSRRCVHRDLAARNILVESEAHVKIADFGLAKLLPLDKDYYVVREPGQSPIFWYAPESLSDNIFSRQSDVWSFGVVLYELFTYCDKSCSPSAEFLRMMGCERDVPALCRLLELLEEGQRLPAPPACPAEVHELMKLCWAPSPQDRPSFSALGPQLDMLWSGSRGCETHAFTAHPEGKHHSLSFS
Protocol: as §1

Erk1 = Erk1 (Homo sapiens (Human), UniProt P27361); settings: H929 live cell
Protocol: as §1

PKR = PKR (Homo sapiens (Human), UniProt P19525); settings: H929 live cell
Sequence of PKR (P19525 whole entry): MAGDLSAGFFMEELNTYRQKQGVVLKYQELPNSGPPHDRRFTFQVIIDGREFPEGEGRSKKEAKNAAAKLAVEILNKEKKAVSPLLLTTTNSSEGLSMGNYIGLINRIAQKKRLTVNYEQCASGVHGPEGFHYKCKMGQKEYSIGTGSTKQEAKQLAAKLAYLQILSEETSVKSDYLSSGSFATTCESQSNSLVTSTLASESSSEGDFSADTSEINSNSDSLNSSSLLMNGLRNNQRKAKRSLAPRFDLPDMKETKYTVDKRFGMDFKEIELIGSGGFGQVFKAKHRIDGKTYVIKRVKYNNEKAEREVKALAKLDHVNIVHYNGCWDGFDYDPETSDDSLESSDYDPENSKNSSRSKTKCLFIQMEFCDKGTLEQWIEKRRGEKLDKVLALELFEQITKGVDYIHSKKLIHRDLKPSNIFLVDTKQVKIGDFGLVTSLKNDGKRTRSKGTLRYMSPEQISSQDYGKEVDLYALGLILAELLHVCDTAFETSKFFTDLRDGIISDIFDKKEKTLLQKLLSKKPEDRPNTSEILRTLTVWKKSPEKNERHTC
Protocol: as §1

HPK1 = HPK1 (Homo sapiens (Human), UniProt Q92918); settings: H929 live cell
Protocol: as §1

GSK3A = GSK3A (Homo sapiens (Human), UniProt P49840); settings: H929 live cell
Protocol: as §1

TYK2 domain2 = TYK2 domain2 (Homo sapiens (Human), UniProt P29597); settings: H929 live cell
Protocol: as §1

PKCi = PKCi (Homo sapiens (Human), UniProt P41743); settings: H929 live cell
Sequence of PKCi (P41743 whole entry): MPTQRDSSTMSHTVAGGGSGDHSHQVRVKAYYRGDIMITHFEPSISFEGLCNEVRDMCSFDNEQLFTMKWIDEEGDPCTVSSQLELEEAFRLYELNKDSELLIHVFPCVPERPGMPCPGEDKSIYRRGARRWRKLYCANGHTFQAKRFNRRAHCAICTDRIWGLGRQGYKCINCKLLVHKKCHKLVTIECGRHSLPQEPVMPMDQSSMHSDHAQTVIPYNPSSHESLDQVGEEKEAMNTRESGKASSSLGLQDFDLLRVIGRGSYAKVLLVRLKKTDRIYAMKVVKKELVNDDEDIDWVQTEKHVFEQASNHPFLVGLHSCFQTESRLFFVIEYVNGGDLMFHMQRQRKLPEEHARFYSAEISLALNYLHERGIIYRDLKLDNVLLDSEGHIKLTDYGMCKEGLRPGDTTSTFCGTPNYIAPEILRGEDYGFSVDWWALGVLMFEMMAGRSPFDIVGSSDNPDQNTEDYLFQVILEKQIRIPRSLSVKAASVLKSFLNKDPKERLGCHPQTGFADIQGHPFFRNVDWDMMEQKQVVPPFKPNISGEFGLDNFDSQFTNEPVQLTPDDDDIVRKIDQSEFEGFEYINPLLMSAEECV
Protocol: as §1

CK1a = CK1a (Homo sapiens (Human), UniProt P48729); settings: H929 live cell
Protocol: as §1

CDK7 = CDK7 (Homo sapiens (Human), UniProt P50613); settings: H929 live cell
Protocol: as §1

CLK2 = CLK2 (Homo sapiens (Human), UniProt P49760); settings: H929 live cell
Protocol: as §1

MASTL = MASTL (Homo sapiens (Human), UniProt Q96GX5); settings: H929 live cell
Protocol: as §1

p38a = p38a (Homo sapiens (Human), UniProt Q16539); settings: H929 live cell, range class, read-out: % inhibition
Method in brief: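 H929 live-cell screen at 10 μM, run in duplicate. Kinase occupancy was assessed via the KiNativ platform, with IC50 determined by mass spectrometry.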

MPSK1 = MPSK1 (Homo sapiens (Human), UniProt O75716); settings: H929 live cell
Sequence of MPSK1 (O75716 whole entry): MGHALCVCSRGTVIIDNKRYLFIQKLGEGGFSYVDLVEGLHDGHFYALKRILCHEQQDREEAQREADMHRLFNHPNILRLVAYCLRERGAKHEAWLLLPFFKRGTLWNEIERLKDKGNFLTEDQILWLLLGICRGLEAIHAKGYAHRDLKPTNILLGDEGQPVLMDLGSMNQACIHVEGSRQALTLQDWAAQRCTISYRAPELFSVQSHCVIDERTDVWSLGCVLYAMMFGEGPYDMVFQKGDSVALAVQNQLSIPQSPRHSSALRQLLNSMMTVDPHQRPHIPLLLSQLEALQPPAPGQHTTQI
Protocol: as §1

MAST3 = MAST3 (Homo sapiens (Human), UniProt O60307); settings: H929 live cell
Protocol: as §1

p70S6K = p70S6K (Homo sapiens (Human), UniProt P23443); settings: H929 live cell
Protocol: as §1

MST1 = MST1 (Homo sapiens (Human), UniProt Q13043); settings: H929 live cell
Sequence of MST1 (Q13043 whole entry): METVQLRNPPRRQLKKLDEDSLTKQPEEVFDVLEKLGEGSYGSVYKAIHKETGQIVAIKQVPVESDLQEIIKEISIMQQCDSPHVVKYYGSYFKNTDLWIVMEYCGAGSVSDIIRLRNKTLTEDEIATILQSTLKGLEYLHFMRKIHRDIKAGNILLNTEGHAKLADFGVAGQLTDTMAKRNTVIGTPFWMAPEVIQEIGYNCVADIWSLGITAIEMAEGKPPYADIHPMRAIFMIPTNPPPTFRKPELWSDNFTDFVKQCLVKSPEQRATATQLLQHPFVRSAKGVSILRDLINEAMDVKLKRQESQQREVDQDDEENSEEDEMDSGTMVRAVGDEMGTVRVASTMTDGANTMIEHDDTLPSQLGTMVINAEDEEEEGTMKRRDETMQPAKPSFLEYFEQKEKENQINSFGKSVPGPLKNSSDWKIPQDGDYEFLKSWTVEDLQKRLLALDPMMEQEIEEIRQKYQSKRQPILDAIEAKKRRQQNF
Protocol: as §1

SNRK = SNRK (Homo sapiens (Human), UniProt Q9NRH2); settings: H929 live cell
Sequence of SNRK (Q9NRH2 whole entry): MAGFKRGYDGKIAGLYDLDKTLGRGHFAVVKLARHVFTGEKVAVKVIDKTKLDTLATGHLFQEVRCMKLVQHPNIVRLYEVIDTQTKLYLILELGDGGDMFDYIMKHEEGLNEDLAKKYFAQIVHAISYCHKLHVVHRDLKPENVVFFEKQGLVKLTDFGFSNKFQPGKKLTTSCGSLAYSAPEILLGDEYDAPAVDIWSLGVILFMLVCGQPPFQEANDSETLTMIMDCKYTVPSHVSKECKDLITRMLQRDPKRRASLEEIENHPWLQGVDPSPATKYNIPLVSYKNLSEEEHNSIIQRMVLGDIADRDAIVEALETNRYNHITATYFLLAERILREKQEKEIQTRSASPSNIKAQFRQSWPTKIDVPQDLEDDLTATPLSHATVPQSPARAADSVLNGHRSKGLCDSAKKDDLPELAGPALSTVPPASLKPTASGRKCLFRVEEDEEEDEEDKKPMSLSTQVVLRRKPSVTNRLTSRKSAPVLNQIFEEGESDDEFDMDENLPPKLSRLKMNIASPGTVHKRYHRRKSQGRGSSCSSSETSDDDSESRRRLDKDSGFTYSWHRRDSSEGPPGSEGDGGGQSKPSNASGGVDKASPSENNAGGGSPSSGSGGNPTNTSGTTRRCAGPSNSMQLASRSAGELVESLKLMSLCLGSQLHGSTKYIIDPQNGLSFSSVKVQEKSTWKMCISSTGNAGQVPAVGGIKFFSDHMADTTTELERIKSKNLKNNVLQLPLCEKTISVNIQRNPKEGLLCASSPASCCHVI
Protocol: as §1

NuaK1 = NuaK1 (Homo sapiens (Human), UniProt O60285); settings: H929 live cell
Sequence of NuaK1 (O60285 whole entry): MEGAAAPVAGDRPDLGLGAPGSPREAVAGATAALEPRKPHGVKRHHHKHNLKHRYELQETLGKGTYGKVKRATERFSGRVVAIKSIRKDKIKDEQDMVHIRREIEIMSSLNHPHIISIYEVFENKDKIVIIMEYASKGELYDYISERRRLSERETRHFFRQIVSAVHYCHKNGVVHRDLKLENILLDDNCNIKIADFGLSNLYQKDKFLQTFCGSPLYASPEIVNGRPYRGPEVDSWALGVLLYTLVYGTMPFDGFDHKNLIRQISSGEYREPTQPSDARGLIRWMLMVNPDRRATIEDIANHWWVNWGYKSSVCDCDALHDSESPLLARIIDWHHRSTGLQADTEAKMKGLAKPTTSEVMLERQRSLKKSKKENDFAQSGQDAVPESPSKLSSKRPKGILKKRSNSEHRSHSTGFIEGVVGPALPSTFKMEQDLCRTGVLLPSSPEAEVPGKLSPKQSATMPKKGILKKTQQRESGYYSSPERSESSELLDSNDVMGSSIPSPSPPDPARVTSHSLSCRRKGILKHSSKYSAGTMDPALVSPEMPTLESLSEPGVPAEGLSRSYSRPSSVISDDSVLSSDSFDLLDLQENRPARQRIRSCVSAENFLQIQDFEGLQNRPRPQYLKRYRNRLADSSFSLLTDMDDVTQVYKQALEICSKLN
Protocol: as §1

MARK3 = MARK3 (Homo sapiens (Human), UniProt P27448); settings: H929 live cell
Protocol: as §1

MAP2K3 = MAP2K3 (Homo sapiens (Human), UniProt P46734); settings: H929 live cell
Sequence of MAP2K3 (P46734 whole entry): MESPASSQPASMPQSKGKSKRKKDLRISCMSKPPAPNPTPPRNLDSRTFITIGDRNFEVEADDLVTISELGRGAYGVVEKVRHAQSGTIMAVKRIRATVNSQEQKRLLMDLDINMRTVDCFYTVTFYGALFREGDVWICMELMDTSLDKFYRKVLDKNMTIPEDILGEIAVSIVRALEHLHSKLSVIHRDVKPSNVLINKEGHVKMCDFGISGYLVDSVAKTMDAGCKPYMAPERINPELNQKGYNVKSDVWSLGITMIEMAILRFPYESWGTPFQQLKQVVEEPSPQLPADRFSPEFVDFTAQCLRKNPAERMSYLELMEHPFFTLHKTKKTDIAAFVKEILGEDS
Protocol: as §1

p38d, p38g = settings: H929 live cell
Protocol: as §1

[1] = range class, read-out: % inhibition

Compound: COc1cc(NS(=O)(=O)C2CC2)ccc1-c1cnc(N)c(-c2ccc3c(c2)CCNC3=O)c1 [Compound I-50, N-(4-(6-amino-5-(1-oxo-1,2,3,4-tetrahydroisoquinolin-6-yl)pyridin-3-yl)-3-methoxyphenyl) cyclopropanesulfonamide]
- inhibition at 10 µM (NEK3; [1]): 0%
- inhibition at 10 µM (NEK3; read-out: inhibition (10 μM)): -9.9%
- inhibition at 10 µM (IRAK1; [1]): 50 to 75%
- inhibition at 10 µM (IRAK1; read-out: inhibition (10 μM)): 51.2%
- inhibition at 10 µM (JAK3 domain2; [1]): 0%
- inhibition at 10 µM (JAK3 domain2; read-out: inhibition (10 μM)): -20.2%
- inhibition at 10 µM (Erk1; [1]): 0%
- inhibition at 10 µM (Erk1; read-out: inhibition (10 μM)): 29%
- inhibition at 10 µM (PKR; [1]): 0%
- inhibition at 10 µM (PKR; read-out: inhibition (10 μM)): 1.8%
- inhibition at 10 µM (HPK1; [1]): > 90%
- inhibition at 10 µM (HPK1; read-out: inhibition (10 μM)): 90.4%
- inhibition at 10 µM (GSK3A; [1]): 75 to 90%
- inhibition at 10 µM (GSK3A; read-out: inhibition (10 μM)): 77.4%
- inhibition at 10 µM (TYK2 domain2; [1]): 0%
- inhibition at 10 µM (TYK2 domain2; read-out: inhibition (10 μM)): -21%
- inhibition at 10 µM (PKCi; [1]): 0%
- inhibition at 10 µM (PKCi; read-out: inhibition (10 μM)): -15%
- inhibition at 10 µM (CK1a; [1]): 0%
- inhibition at 10 µM (CK1a; read-out: inhibition (10 μM)): -20.9%
- inhibition at 10 µM (CDK7; [1]): 0%
- inhibition at 10 µM (CDK7; read-out: inhibition (10 μM)): 19.4%
- inhibition at 10 µM (CLK2; [1]): 0%
- inhibition at 10 µM (CLK2; read-out:): 10.8%
- inhibition at 10 µM (MASTL; [1]): 0%
- inhibition at 10 µM (MASTL; read-out: inhibition (10 μM)): -1.4%
- inhibition at 10 µM (p38a): 0%
- inhibition at 10 µM (MPSK1; [1]): 0%
- inhibition at 10 µM (MPSK1; read-out: inhibition (10 μM)): 15.7%
- inhibition at 10 µM (MAST3; [1]): 0%
- inhibition at 10 µM (MAST3; read-out: inhibition (10 μM)): -0.5%
- inhibition at 10 µM (p70S6K; [1]): 0%
- inhibition at 10 µM (p70S6K; read-out: inhibition (10 μM)): 2.4%
- inhibition at 10 µM (MST1; [1]): > 90%
- inhibition at 10 µM (MST1; read-out: inhibition (10 μM)): 97.5%
- inhibition at 10 µM (SNRK; [1]): 0%
- inhibition at 10 µM (SNRK; read-out: inhibition (10 μM)): 33.2%
- inhibition (10 μM) (NuaK1): 61.5%
- inhibition at 10 µM (NuaK1; [1]): 50 to 75%
- inhibition at 10 µM (NuaK1; read-out: inhibition (10 μM)): 67.9%
- inhibition at 10 µM (MARK3; [1]): 0%
- inhibition at 10 µM (MARK3; read-out: inhibition (10 μM)): -17.3%
- inhibition at 10 µM (MAP2K3; [1]): 0%
- inhibition at 10 µM (MAP2K3; read-out: inhibition (10 μM)): -5.7%
- % inhibition (p38d, p38g; 10 μM, range class): 0.0%
- inhibition (10 μM) (p38d, p38g): 7.4%
